Results: patent US9995734B2, “Human T cell line assay for evaluating the immunologic identity of glatiramer acetate preparations” (Mylan Inc., priority 2013, dated 2018)
Values joined by “and” are separate entries in the source; they are usually repeats but may differ in a detail not shown here. Equal entries are not always repeated.

Tests used:
Donor 3 GMA T-Cell Lines = test: ATP proliferation assay (CellTiter Glo), Donor 3 GMA T-cell lines, incl. reactivity to non-canonical GA peptides; assay type: cell-based, human
Donor 3 COP T-Cell Lines = test: ATP proliferation assay (CellTiter Glo), Donor 3 COP T-cell lines, incl. reactivity to non-canonical GA peptides; assay type: cell-based, human; conditions: for Non-Canonical Peptide Non-Reactivity: proliferation <2 times no antigen control

## poly (Glu-Lys-Tyr; 6:3:1) [GLT 631]
Donor 3 GMA T-Cell Lines; T-cell line 165-E9G, 10 μpg/mL antigen, Day 50 of culturing, No Antigen Value 1742
  Proliferation (luminescent ATP assay), Mean: 2341 RLU
Donor 3 GMA T-Cell Lines; T-cell line 165-F5G, 1.25 μg/mL antigen, autologous B-LCL
  Proliferation (luminescent ATP assay), Mean: 131 RLU
Donor 3 GMA T-Cell Lines; T-cell line 165-F5G, 2.5 μg/mL antigen, autologous B-LCL
  Proliferation (luminescent ATP assay), Mean: 143 RLU
Donor 3 GMA T-Cell Lines; T-cell line 165-F5G, 5 μg/mL antigen, autologous B-LCL
  Proliferation (luminescent ATP assay), Mean: 176 RLU
Donor 3 GMA T-Cell Lines; T-cell line 165-F5G, 10 μg/mL antigen, autologous B-LCL
  Proliferation (luminescent ATP assay), Mean: 110 RLU
Donor 3 GMA T-Cell Lines; T-cell line 165-F10G, 1 μg/mL antigen, Day 50 of culturing, No Antigen Value 3752
  Proliferation (luminescent ATP assay), Mean: 3363 RLU
Donor 3 GMA T-Cell Lines; T-cell line 165-F10G, 1.25 μg/mL antigen, autologous B-LCL
  Proliferation (luminescent ATP assay), Mean: 1012 RLU
Donor 3 GMA T-Cell Lines; T-cell line 165-F10G, 2.5 μg/mL antigen, autologous B-LCL
  Proliferation (luminescent ATP assay), Mean: 1389 RLU
Donor 3 GMA T-Cell Lines; T-cell line 165-F10G, 3 μg/mL antigen, Day 50 of culturing, No Antigen Value 3752
  Proliferation (luminescent ATP assay), Mean: 3061 RLU
Donor 3 GMA T-Cell Lines; T-cell line 165-F10G, 5 μg/mL antigen, autologous B-LCL
  Proliferation (luminescent ATP assay), Mean: 2620 RLU
Donor 3 GMA T-Cell Lines; T-cell line 165-F10G, 10 μg/mL antigen, Day 50 of culturing, No Antigen Value 3752
  Proliferation (luminescent ATP assay), Mean: 4823 RLU
Donor 3 GMA T-Cell Lines; T-cell line 165-F10G, 10 μg/mL antigen, autologous B-LCL
  Proliferation (luminescent ATP assay), Mean: 2505 RLU
Donor 3 GMA T-Cell Lines; T-cell line 165-F10G, 30 μg/mL antigen, Day 50 of culturing, No Antigen Value 3752
  Proliferation (luminescent ATP assay), Mean: 4568 RLU
Donor 3 GMA T-Cell Lines; T-cell line 165-H11G, 1 μg/mL antigen, Day 50 of culturing, No Antigen Value 1485
  Proliferation (luminescent ATP assay), Mean: 2763 RLU
Donor 3 GMA T-Cell Lines; T-cell line 165-H11G, 1.25 μg/mL antigen, autologous B-LCL
  Proliferation (luminescent ATP assay), Mean: 29 RLU
Donor 3 GMA T-Cell Lines; T-cell line 165-H11G, 2.5 μg/mL antigen, autologous B-LCL
  Proliferation (luminescent ATP assay), Mean: 344 RLU
Donor 3 GMA T-Cell Lines; T-cell line 165-H11G, 3 μg/mL antigen, Day 50 of culturing, No Antigen Value 1485
  Proliferation (luminescent ATP assay), Mean: 2875 RLU
Donor 3 GMA T-Cell Lines; T-cell line 165-H11G, 5 μg/mL antigen, autologous B-LCL
  Proliferation (luminescent ATP assay), Mean: 448 RLU
Donor 3 GMA T-Cell Lines; T-cell line 165-H11G, 10 μg/mL antigen, Day 50 of culturing, No Antigen Value 1485
  Proliferation (luminescent ATP assay), Mean: 3028 RLU
Donor 3 GMA T-Cell Lines; T-cell line 165-H11G, 10 μg/mL antigen, autologous B-LCL
  Proliferation (luminescent ATP assay), Mean: 435 RLU
Donor 3 GMA T-Cell Lines; T-cell line 165-H11G, 30 μg/mL antigen, Day 50 of culturing, No Antigen Value 1485
  Proliferation (luminescent ATP assay), Mean: 3093 RLU
Donor 3 COP T-Cell Lines; 165-B6C
  Non-Canonical Peptide Non-Reactivity: GLT 631
Donor 3 COP T-Cell Lines; 165-C4C
  Non-Canonical Peptide Non-Reactivity: GLT 631
Donor 3 COP T-Cell Lines; 165-C7C
  Non-Canonical Peptide Non-Reactivity: GLT 631
Donor 3 COP T-Cell Lines; 165-E3C, separate experiment
  proliferation response to non-canonical peptides: did not react
Donor 3 COP T-Cell Lines; 165-F3C
  Non-Canonical Peptide Non-Reactivity: GLT 631
Donor 3 COP T-Cell Lines; 165-F6C
  Non-Canonical Peptide Non-Reactivity: GLT 631
Donor 3 COP T-Cell Lines; 165-U3C (so in the source)
  Non-Canonical Peptide Non-Reactivity: GLT 631
Donor 3 COP T-Cell Lines; Donor 3 COP lines, stimulation with the non-canonical GA peptide
  Nonreactive T-Cell Line: 165-B6C (Donor 3) and 165-C4C (Donor 3) and 165-C7C (Donor 3) and 165-E3C (Donor 3) and 165-F3C (Donor 3) and 165-F6C (Donor 3)
Donor 3 COP T-Cell Lines; T-cell line 165-C4C, 1 μg/mL antigen, Day 66 of culture, 0 μg/mL 1881
  Proliferation (luminescent ATP assay), Mean: 2465
Donor 3 COP T-Cell Lines; T-cell line 165-C4C, 3 μg/mL antigen, Day 66 of culture, 0 μg/mL 1881
  Proliferation (luminescent ATP assay), Mean: 2677
Donor 3 COP T-Cell Lines; T-cell line 165-C4C, 10 μg/mL antigen, Day 66 of culture, 0 μg/mL 1881
  Proliferation (luminescent ATP assay), Mean: 2939
Donor 3 COP T-Cell Lines; T-cell line 165-C7C, 1.25 μg/mL antigen, autologous B-LCL
  Proliferation (luminescent ATP assay), Mean: 273 RLU
Donor 3 COP T-Cell Lines; T-cell line 165-C7C, 2.5 μg/mL antigen, autologous B-LCL
  Proliferation (luminescent ATP assay), Mean: 219 RLU
Donor 3 COP T-Cell Lines; T-cell line 165-C7C, 5 μg/mL antigen, autologous B-LCL
  Proliferation (luminescent ATP assay), Mean: 273 RLU
Donor 3 COP T-Cell Lines; T-cell line 165-C7C, 10 μg/mL antigen, autologous B-LCL
  Proliferation (luminescent ATP assay), Mean: 219 RLU
Donor 3 COP T-Cell Lines; T-cell line 165-F3C, 1 μg/mL antigen, Day 77 of culture, 0 μg/mL 1563
  Proliferation (luminescent ATP assay), Mean: 2325
Donor 3 COP T-Cell Lines; T-cell line 165-F3C, 3 μg/mL antigen, Day 77 of culture, 0 μg/mL 1563
  Proliferation (luminescent ATP assay), Mean: 2557
Donor 3 COP T-Cell Lines; T-cell line 165-F3C, 10 μg/mL antigen, Day 77 of culture, 0 μg/mL 1563
  Proliferation (luminescent ATP assay), Mean: 2724
Donor 3 COP T-Cell Lines; T-cell line 165-F6C, 1.25 μg/mL antigen, Day 76 of culture, No Antigen value 517
  Proliferation (luminescent ATP assay), Mean: 501
Donor 3 COP T-Cell Lines; T-cell line 165-F6C, 2.5 μg/mL antigen, Day 76 of culture, No Antigen value 517
  Proliferation (luminescent ATP assay), Mean: 416
Donor 3 COP T-Cell Lines; T-cell line 165-F6C, 5 μg/mL antigen, Day 76 of culture, No Antigen value 517
  Proliferation (luminescent ATP assay), Mean: 482
Donor 3 COP T-Cell Lines; T-cell line 165-F6C, 10 μg/mL antigen, Day 76 of culture, No Antigen value 517
  Proliferation (luminescent ATP assay), Mean: 474
